Among the test systems are HOP-62; MDA-MB-435; NCI-H460; K562; MDA-N; A498; EKVX; NCI-H23; U-251; SNB-19; BT-549; SK-MEL-28; SW-620; HL-60; SK-OV-3; COLO 205; OVCAR-8; HCT-116; CCRF-CEM; SK-MEL-2.
Holding throughout (experiment): NCI anticancer screen, dose series, 48 h

Where “and” joins values, the source holds several entries; their conditions need not be identical. Equal values may be shown once.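 Results reflect a 48-hour exposure of cells in 96-well plates to compound at five concentrations. GI50 marks 50% less growth.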 Calls of active or inactive are those of the source. No stated cut-off is given here; in the data, active = GI50 up to about 1.1 µM and inactive = higher.

Results on ten compounds are retold here after ChEMBL document CHEMBL1201862, “PubChem BioAssay data set” (2004).

For `NC(Cc1cc(Br)c(O)c(Br)c1)C(=O)O` (stereo not drawn), the GI50 in the experiment on HOP-62, in the experiment on MDA-MB-435, in the experiment on NCI-H460, in the experiment on K562, with MDA-N and in the experiment with A498 was > 100 µM (inactive) in each case. The GI50 in the experiment on EKVX, in the experiment on NCI-H23, with U-251, with SNB-19, in the experiment on BT-549 and in the experiment with SK-MEL-28 was > 100 µM (inactive) in each case. In addition, the GI50 in the experiment with SW-620, in the experiment with HL-60, in the experiment on SK-OV-3, in the experiment with COLO 205, in the experiment with OVCAR-8 and with HCT-116 was > 100 µM (inactive) in each case. For the same compound, the GI50 in the experiment on CCRF-CEM and with SK-MEL-2 was > 100 µM (inactive) in each case.
Turning to `COc1ccc2oc(C(=O)N3CC(CCl)c4ccc(N)cc43)cc2c1` (stereo not drawn), the GI50 with HOP-62 is 0.995 µM (active); in the experiment with MDA-MB-435, 0.332 µM (active); with NCI-H460, 0.203 µM (active); with K562 it was 0.39 µM (active); in the experiment on MDA-N, 0.553 µM (active); in the experiment on A498, 0.296 µM (active). Besides, the GI50 is 0.933 µM (active) in the experiment on EKVX; 0.174 µM (active) in the experiment on NCI-H23; 0.333 µM (active) in the experiment on U-251; 1.14 µM (inactive) in the experiment with SNB-19; 0.299 µM (active) in the experiment on BT-549; 0.42 µM (active) in the experiment with SK-MEL-28. The GI50 in the experiment on SW-620 is 0.348 µM (active); in the experiment on HL-60, 0.415 µM (active); in the experiment with SK-OV-3, 1.35 µM (inactive); with COLO 205, 0.284 µM (active); with OVCAR-8 it was 0.279 µM (active); in the experiment on HCT-116, 0.161 µM (active). The GI50 in the experiment on CCRF-CEM is 0.36 µM (active); in the experiment on SK-MEL-2 it was 0.238 µM (active).
With `Clc1ccc(/C(=C\c2ccccc2)Cn2ccnc2)cc1`, the GI50 in the experiment on HOP-62 is 15.9 µM (inactive); with MDA-MB-435, 11.2 µM (inactive); in the experiment with NCI-H460, 20.1 µM (inactive); in the experiment with K562 it was 9.93 µM (inactive); in the experiment with MDA-N it was 14.9 µM (inactive); with A498, 15.3 µM (inactive). Besides, the GI50 in the experiment with EKVX is 21.9 µM (inactive); with NCI-H23 it was 28.9 µM (inactive); with U-251, 15.2 µM (inactive); in the experiment with SNB-19, 21 µM (inactive); in the experiment on BT-549, 14.4 µM (inactive); with SK-MEL-28 it was 13.3 µM (inactive). For the same compound, the GI50 was 29.5 µM (inactive) with SW-620; 14.1 µM (inactive) in the experiment with HL-60; 16.5 µM (inactive) in the experiment on SK-OV-3; 15.1 µM (inactive) in the experiment on COLO 205; 16.1 µM (inactive) in the experiment on OVCAR-8; 14.8 µM (inactive) in the experiment with HCT-116. For the same compound, the GI50 in the experiment on CCRF-CEM was 24.5 µM (inactive); in the experiment with SK-MEL-2, 14.3 µM (inactive).
As for `Cc1nc2c(Br)cc(Br)cc2c(=O)n1-c1ccccc1N`, the GI50 was 70.5 µM (inactive) in the experiment on HOP-62; 39.4 µM (inactive) with MDA-MB-435; 31.8 µM (inactive) in the experiment on NCI-H460; 29.8 µM (inactive) in the experiment with K562; 50.9 µM (inactive) in the experiment on MDA-N; 36.9 µM (inactive) in the experiment on A498. In addition, the GI50 in the experiment on EKVX was 41 µM (inactive); in the experiment with SNB-19, 48.2 µM (inactive); with BT-549, 27.5 µM (inactive); with SK-MEL-28, 44.4 µM (inactive); with SW-620, 44.6 µM (inactive); in the experiment on HL-60, 19.9 µM (inactive). The GI50 in the experiment with SK-OV-3 was 33 µM (inactive); in the experiment with COLO 205 it was 20.7 µM (inactive); with OVCAR-8, 62.5 µM (inactive); in the experiment on HCT-116, 23.4 µM (inactive); with CCRF-CEM, 30.1 µM (inactive); with SK-MEL-2, 19.2 µM (inactive).
Regarding `COC(=O)/C(=N/NC(N)=O)C(C(=O)C(=O)Nc1ccc(C)cc1)c1nc2ccc(C(=O)c3ccccc3)cc2nc1O` (stereo not drawn), the GI50 in the experiment on HOP-62 is > 100 µM (inactive); in the experiment with MDA-MB-435, 37 µM (inactive); with NCI-H460, > 100 µM (inactive); in the experiment on MDA-N, 64.1 µM (inactive); with A498 it was 18.9 µM (inactive); in the experiment on EKVX, 33.4 µM (inactive). Moreover, the GI50 in the experiment on NCI-H23, in the experiment with U-251, in the experiment on SNB-19, in the experiment on BT-549, in the experiment with SK-MEL-28 and with SW-620 was > 100 µM (inactive) in each case. Moreover, the GI50 in the experiment with HL-60 was 67.9 µM (inactive); with SK-OV-3 it was > 100 µM (inactive); in the experiment on COLO 205, > 100 µM (inactive); with OVCAR-8, 75.2 µM (inactive); in the experiment on HCT-116 it was > 100 µM (inactive); with CCRF-CEM it was 49 µM (inactive). In addition, the GI50 in the experiment with SK-MEL-2 was > 100 µM (inactive).
On to `CCOC(=O)C(C(=O)OCC)=C1SC(=N\c2ccccc2)/C(=N/c2ccccc2)N1c1ccccc1`, for which the GI50 with HOP-62 is 34.2 µM (inactive); with MDA-MB-435, > 100 µM (inactive); in the experiment on NCI-H460, > 100 µM (inactive); in the experiment with K562, 4.48 µM (inactive); in the experiment with MDA-N it was > 100 µM (inactive); in the experiment on A498, > 100 µM (inactive). Also, the GI50 with EKVX, in the experiment with NCI-H23, with U-251, with SNB-19, in the experiment on BT-549 and in the experiment on SK-MEL-28 was > 100 µM (inactive) each time. The GI50 is > 100 µM (inactive) with HL-60; > 100 µM (inactive) in the experiment on SK-OV-3; > 100 µM (inactive) with COLO 205; > 100 µM (inactive) with OVCAR-8; > 100 µM (inactive) with HCT-116; 18.4 µM (inactive) in the experiment on CCRF-CEM. For the same compound, in the experiment on SK-MEL-2, the GI50 is > 100 µM (inactive).
In the case of `COc1cc(C2C(Cl)C(=O)N2c2ccc(Br)cc2)cc(I)c1O` (stereo not drawn), the GI50 in the experiment with HOP-62 was 37.4 µM (inactive); in the experiment on MDA-MB-435, 47.5 µM (inactive); in the experiment on NCI-H460, 58.3 µM (inactive); in the experiment with K562, 7.21 µM (inactive); in the experiment with MDA-N, 36.6 µM (inactive); in the experiment with A498 it was > 100 µM (inactive). The GI50 in the experiment with EKVX was 20.7 µM (inactive); in the experiment with NCI-H23, 52.8 µM (inactive); with U-251, > 100 µM (inactive); in the experiment on SNB-19, 73.5 µM (inactive); with BT-549, 45.1 µM (inactive); with SW-620 it was > 100 µM (inactive). Also, the GI50 is 34 µM (inactive) with HL-60; 92.9 µM (inactive) in the experiment on SK-OV-3; > 100 µM (inactive) with COLO 205; > 100 µM (inactive) in the experiment on OVCAR-8; 40.3 µM (inactive) in the experiment with HCT-116; 26.4 µM (inactive) in the experiment with CCRF-CEM. For the same compound, the GI50 in the experiment on SK-MEL-2 is 65.8 µM (inactive).
As for `O=C1N/C(=N/N=C\C(O)C(O)C(O)CO)N/C1=C/c1ccc(Cl)cc1` (stereo not drawn), the GI50 in the experiment with HOP-62 was 46.2 µM (inactive) and 40.3 µM (inactive); in the experiment on MDA-MB-435, 59.4 µM (inactive) and 43.8 µM (inactive); in the experiment on NCI-H460, 33.9 µM (inactive); in the experiment with K562, 27.3 µM (inactive) and 27.2 µM (inactive); in the experiment with MDA-N, 46.2 µM (inactive) and 38.5 µM (inactive); in the experiment on A498, 49.7 µM (inactive) and 39.8 µM (inactive). Also, the GI50 with EKVX was 34.8 µM (inactive) and 26.7 µM (inactive); in the experiment with NCI-H23 it was 30.3 µM (inactive) and 42.8 µM (inactive); in the experiment on U-251 it was 33 µM (inactive) and 34.1 µM (inactive); in the experiment with SNB-19 it was 27 µM (inactive) and 29 µM (inactive); with BT-549, 30.7 µM (inactive) and 23.9 µM (inactive); in the experiment on SK-MEL-28 it was > 100 µM (inactive) and 64.6 µM (inactive). For the same compound, the GI50 was 60.5 µM (inactive) and 52.1 µM (inactive) in the experiment with SW-620; 35.7 µM (inactive) in the experiment with HL-60; 63.5 µM (inactive) in the experiment with SK-OV-3; 42.6 µM (inactive) and 30.1 µM (inactive) with COLO 205; 44.1 µM (inactive) and 27.7 µM (inactive) in the experiment on OVCAR-8; 43.9 µM (inactive) and 46.2 µM (inactive) with HCT-116. The GI50 is 25.8 µM (inactive) and 21.5 µM (inactive) in the experiment on CCRF-CEM; 30.5 µM (inactive) and 40.1 µM (inactive) with SK-MEL-2.
In the case of `CCOC(=O)C(=CN1CCNC1=S)C(=O)OCC`, the GI50 is > 100 µM (inactive) in the experiment with HOP-62; > 100 µM (inactive) with MDA-MB-435; > 100 µM (inactive) in the experiment with NCI-H460; > 100 µM (inactive) in the experiment with K562; > 100 µM (inactive) in the experiment with MDA-N; 18.2 µM (inactive) in the experiment with A498. In addition, the GI50 in the experiment on EKVX, with NCI-H23, in the experiment with U-251, with BT-549, with SK-MEL-28 and in the experiment on SW-620 was > 100 µM (inactive) throughout. In addition, the GI50 in the experiment on HL-60, in the experiment on SK-OV-3, with COLO 205, with OVCAR-8, in the experiment with HCT-116 and in the experiment with CCRF-CEM was > 100 µM (inactive) throughout. In addition, in the experiment on SK-MEL-2, the GI50 is > 100 µM (inactive).
Consider `COc1cc2cc(C(=O)N3CC(COS(C)(=O)=O)c4c3cc(N)c3ccccc43)[nH]c2c(OC)c1OC` (stereo not drawn), for which the GI50 was 0.0191 µM (active) with HOP-62; 0.0152 µM (active) in the experiment on MDA-MB-435; < 0.01 µM (active) with NCI-H460; 0.0195 µM (active) in the experiment on MDA-N; 0.0219 µM (active) in the experiment with A498; 0.0216 µM (active) in the experiment with EKVX. Moreover, the GI50 in the experiment with NCI-H23 was < 0.0179 µM (active); in the experiment with U-251 it was 0.0141 µM (active); with SNB-19 it was < 0.0491 µM (active); in the experiment on BT-549, 0.0187 µM (active); in the experiment with SK-MEL-28, 0.0266 µM (active); in the experiment with SW-620, 0.0148 µM (active). In addition, the GI50 with HL-60 was < 0.01 µM (active); in the experiment with SK-OV-3, 0.0444 µM (active); in the experiment on COLO 205, 0.0244 µM (active); with OVCAR-8, 0.0136 µM (active); in the experiment with HCT-116, 0.0108 µM (active); in the experiment on CCRF-CEM, 0.0128 µM (active). Besides, the GI50 with SK-MEL-2 was 0.0716 µM (active).
